“And” between values parts separate entries of the source, which are not always exact repeats. Equal values may be shown once.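 Exposure lasted 48 hours, with cells grown in 96-well plates and compounds tested at five concentrations. GI50 marks 50% less growth. Definition used: TGI = concentration required for complete inhibition of growth.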
Columns and labels:
Test in all cases: NCI tumour cell line growth inhibition, 48 h
MDA-N = system: MDA-N
DLD-1 colon = system: DLD-1 colon
DMS 114 small cell lung = system: DMS 114 small cell lung
KM20L2 colon = system: KM20L2 colon
RXF-631 renal = system: RXF-631 renal
HOP-18 NSCLC = system: HOP-18 NSCLC
LXFL 529 NSCLC = system: LXFL 529 NSCLC
SNB-78 CNS = system: SNB-78 CNS
XF 498 CNS = system: XF 498 CNS
P388 leukemia = system: P388 leukemia
P388/ADR leukemia = system: P388/ADR leukemia
SN12K1 renal = system: SN12K1 renal

SMILES	TGI (MDA-N)	TGI (DLD-1 colon)	TGI (DMS 114 small cell lung)	TGI (KM20L2 colon)	TGI (RXF-631 renal)	TGI (HOP-18 NSCLC)	TGI (LXFL 529 NSCLC)	TGI (SNB-78 CNS)	TGI (XF 498 CNS)	also measured
CCCC(=O)Nc1cc([N+](=O)[O-])c([N+](=O)[O-])cc1OC	30.6 µM	–	–	–	–	–	–	–	–	–
Cc1ccc(S(=O)(=O)N/N=C/c2oc(-c3ccccc3Cl)c(-c3ccccc3Cl)c2[N+](=O)[O-])cc1	–	47.9 µM	76.7 µM	37.9 µM	60.3 µM	–	–	–	–	–
Cc1ccc([N+](=O)[O-])cc1NC(=O)C(=O)Cc1cc(=O)oc2cc(O)ccc12	–	> 100 µM	36.3 µM	> 100 µM	–	> 100 µM	> 100 µM	> 100 µM	> 100 µM	–
O=C(Nc1ccc([N+](=O)[O-])cc1C(=O)O)c1ccc([N+](=O)[O-])cc1	–	> 100 µM	50.7 µM	64.9 µM	> 100 µM	–	> 100 µM	–	> 100 µM	–
Cn1cnc([N+](=O)[O-])c1SC1=NCCS1	–	> 100 µM	–	–	–	> 100 µM	> 100 µM	> 100 µM	> 100 µM	–
COc1ccc2cc3[n+](cc2c1OC)CCc1cc2c(cc1-3)OCO2	–	> 59.9 µM and 253 µM	> 64.8 µM and 76.7 µM	> 92.5 µM and 94.6 µM	–	> 100 µM and 207 µM	> 74.9 µM	> 100 µM and 167 µM	66.6 µM and 31.4 µM	GI50 (DLD-1 colon): 26.2 µM and 54.2 µM; TGI (P388 leukemia): 69.6 µM; TGI (P388/ADR leukemia): > 325 µM; TGI (SN12K1 renal): 37.7 µM
CC(C)=CC(O)C/C(C)=C/CC/C(C)=C/CCC1(C)C(CCCO)/C(=C(/C)C=O)CCC1(C)O (stereo unspecified)	52.4 µM	–	–	–	–	–	–	–	–	–
COc1ccc(NC(=O)COC(=O)c2cccc3c(=O)c4ccccc4[nH]c23)cc1	–	31.9 µM	37.8 µM	51.7 µM	–	93.8 µM	43.3 µM	64.2 µM	36.5 µM	–
O=c1[nH]c(=O)n(C2CC(O)C(CO)O2)cc1C#Cc1cc(C(F)(F)F)cc(C(F)(F)F)c1 (stereo unspecified)	–	> 100 µM	> 100 µM	> 100 µM	> 100 µM	> 100 µM	> 100 µM	> 100 µM	> 86.6 µM	–
COCOCc1cc(OCc2ccccc2)c(OC)cc1Br	–	> 100 µM	–	> 100 µM	–	> 100 µM	–	> 100 µM	> 100 µM	–
Nc1nc(Cl)c(N=Nc2ccc(Cl)cc2)c(NCC2(CO)CC(OCc3ccccc3)C2)n1 (stereo unspecified)	> 100 µM	–	–	–	–	–	–	–	–	GI50 (MDA-N): 29.5 µM and > 100 µM and 11.8 µM
CCOCC(=O)N[C@H]1CCc2cc(OC(=O)COCC)c(OC)c(OC)c2-c2ccc(SC)c(=O)cc21	0.00611 µM	–	–	–	–	–	–	–	–	–
O=C(CC/C(CC(=O)c1ccc(Cl)cc1)=N/O)Nc1ccc(Cl)c(Cl)c1	–	> 100 µM	> 100 µM	> 100 µM	> 100 µM	> 100 µM	> 100 µM	> 100 µM	> 100 µM	–
C/C1=C\CC[C@@]2(C)O[C@@H]2C[C@@H]2[C@H](C/C(C)=C/CC1)OC(=O)C21CCN=N1 (stereo partly specified)	> 100 µM	–	–	–	–	–	–	–	–	GI50 (MDA-N): > 100 µM
N#CCC12CC=CCC1=C(O)C(=O)c1ccc(O)cc12 (stereo unspecified)	> 100 µM	–	–	–	–	–	–	–	–	–
C#C[C@@]1(O)CCCC2=CC(=O)C[C@]21C	–	> 100 µM	> 100 µM	–	–	> 100 µM	> 100 µM	–	> 100 µM	–
Cc1cc(Cl)ccc1NC(=O)CC1SC(N)=NC1=O (stereo unspecified)	–	> 100 µM	> 100 µM	> 100 µM	> 100 µM	> 100 µM	> 100 µM	–	–	–
N#CCc1ccc(/C(C#N)=C2/OC(=N)C(c3ccc(CC#N)cc3)C2=O)cc1 (stereo unspecified)	–	> 100 µM	> 100 µM	> 100 µM	> 100 µM	–	> 100 µM	> 100 µM	> 100 µM	–
O=C1CCCC(=O)C1=C(O)CCCCCCCCCCc1ccccc1	–	> 100 µM	53.4 µM	> 100 µM	–	> 100 µM	> 100 µM	> 100 µM	> 100 µM	–
O=C1Nc2ccccc2/C1=C/c1ccccc1	40.7 µM	–	–	–	–	–	–	–	–	–

SMILES	TGI (MDA-N)	TGI (DLD-1 colon)	TGI (DMS 114 small cell lung)	TGI (KM20L2 colon)	TGI (RXF-631 renal)	TGI (HOP-18 NSCLC)	TGI (LXFL 529 NSCLC)	TGI (SNB-78 CNS)	TGI (XF 498 CNS)	also measured
COC(=O)c1c(C)cc2c(c1O)C1(O)C(=O)c3cc4c(c(O)c3C(=O)C1(OC)C(O)C2)C(=O)C=C(NC1OC(C)C(OC)C(O)C1OC)C4=O (stereo unspecified)	–	0.12 µM	0.0295 µM	0.395 µM	–	–	0.205 µM	0.324 µM	0.235 µM	–
Cc1ccc(-c2nc3c(C(=O)NCCN(C)C)cccc3[nH]2)cc1	–	73.2 µM	26.6 µM	–	31 µM	51.5 µM	–	83.3 µM	–	–
Cc1ccc(NC(=O)COC(=O)c2cccc3c(=O)c4ccccc4[nH]c23)cc1	–	> 100 µM	> 100 µM	> 100 µM	> 100 µM	> 100 µM	> 100 µM	> 100 µM	78.3 µM	–
S=P1(c2ccccc2)Nc2ccc(Cl)cc2N1 (stereo unspecified)	–	> 100 µM	> 100 µM	> 100 µM	> 100 µM	> 100 µM	> 100 µM	> 100 µM	> 100 µM	–
C/C=C(\CCC1NCCc2c1[nH]c1ccccc21)[Si](C)(C)C (stereo unspecified)	3.74 µM	14.1 µM and 11.3 µM	10.8 µM and 3.51 µM	11.7 µM and 4.12 µM	17.1 µM and 13.9 µM	50.8 µM and 19.1 µM	9.27 µM and 3.2 µM	24.5 µM and 11.7 µM	6.99 µM and 2.75 µM	GI50 (DMS 114 small cell lung): 5.76 µM and 1.83 µM; GI50 (KM20L2 colon): 5.29 µM and 1.92 µM
Cc1ccc(NC(=O)C(=O)C2NC(=S)NC2=O)c([N+](=O)[O-])c1 (stereo unspecified)	–	> 100 µM	> 100 µM	> 100 µM	–	> 100 µM	> 100 µM	> 100 µM	> 100 µM	–
Cc1[nH]n(-c2ccc(S(=O)(=O)O)cc2)c(=O)c1N=Nc1ccccc1	> 100 µM	–	–	–	–	–	–	–	–	–
O=C1Cc2ccccc2N1c1c(Cl)cccc1Cl	–	> 100 µM	95.4 µM	> 100 µM	> 100 µM	> 100 µM	> 100 µM	> 100 µM	82.3 µM	–
Oc1ccc2ccccc2c1C(c1ccc(Cl)cc1)c1c(O)ccc2ccccc12	12.2 µM	–	–	–	–	–	–	–	–	–
CC1C=CC(C)C2(O)C(=O)NC(O)C12 (stereo unspecified)	–	> 100 µM	> 100 µM	> 100 µM	> 100 µM	> 100 µM	> 100 µM	> 100 µM	–	–
N#CCCN(CCC#N)c1ccc(/C=N\c2nc(-c3ccccc3)cs2)cc1	–	> 100 µM	> 100 µM	> 100 µM	> 100 µM	–	> 100 µM	> 100 µM	> 100 µM	–
CCC[CH2][Sn]1([CH2]CCC)[O]C(=O)c2cccc(OC)c2[O]1	–	0.986 µM	0.624 µM	2.68 µM	–	1.95 µM	0.212 µM	0.959 µM	0.28 µM	GI50 (DLD-1 colon): 0.244 µM; GI50 (DMS 114 small cell lung): 0.196 µM; GI50 (HOP-18 NSCLC): 0.687 µM; GI50 (KM20L2 colon): 1.33 µM; GI50 (LXFL 529 NSCLC): 0.0427 µM; GI50 (SNB-78 CNS): 0.093 µM; GI50 (XF 498 CNS): 0.131 µM
N#Cc1c(-c2ccc(Cl)cc2)c(-c2ccc(Cl)cc2)nn(CCOC(=O)CCC(=O)O)c1=O	0.202 µM	> 100 µM	11.8 µM	4.89 µM	–	> 100 µM	> 100 µM	–	–	–
CCN(CC)CCC(=O)N1CCc2c([nH]c3ccccc23)C1c1cccnc1 (stereo unspecified)	–	> 100 µM	> 100 µM	> 100 µM	–	> 100 µM	> 100 µM	> 100 µM	> 100 µM	–
C[N+](C)(C)Cc1c(CC#N)[nH]c2ccccc12	–	> 100 µM	> 100 µM	> 100 µM	–	–	> 100 µM	–	> 100 µM	–
COc1ccc(CC2NCCc3cc(OC)c(OC)cc32)cc1 (stereo unspecified)	–	> 100 µM	> 100 µM	> 100 µM	> 100 µM	> 100 µM	> 100 µM	> 100 µM	> 100 µM	–
Cn1c(=O)c2[nH]c(C3CC(=O)CC(c4nc5c([nH]4)c(=O)n(C)c(=O)n5C)N3)nc2n(C)c1=O (stereo unspecified)	> 100 µM	–	–	–	–	–	–	–	–	–
CCOC(=O)N[C@H]1CCc2cc(O)c(OC)c(OC)c2-c2ccc(SC)c(=O)cc21	–	> 100 µM	0.473 µM	0.0301 µM	2.91 µM	> 100 µM	> 92.3 µM	> 8 µM	> 44.4 µM	–
Cn1cnc([N+](=O)[O-])c1Sc1nc2cccnc2s1	–	26.7 µM	28.5 µM	31.7 µM	28.4 µM	–	25 µM	> 100 µM	39.2 µM	–
CC1CC(=O)C(CC(=O)O)C1C(C(=O)C(=O)Nc1c(C#N)cccc1[N+](=O)[O-])[N+](=O)[O-] (stereo unspecified)	–	> 100 µM	> 100 µM	> 100 µM	–	–	> 100 µM	> 100 µM	> 100 µM	–
